Laboratory results published in patent publication US11771086B2, “Pest control composition including novel iminopyridine derivative” (priority 2012, dated 2023).

Experiments:
Spodoptera litura = test: Reference Test Example 2 Pest control test of Spodoptera litura (foliar treatment, single agent); assay type: in vivo; conditions: 72 h
Source text: After an air drying process, third instar larvae were released thereto. […] Test in duplicate.

Plutella xylostella = test: Reference Test Example 1 Pest control test of Plutella xylostella (foliar treatment, single agent); assay type: in vivo
Source text: (§1) After an air drying process, second instar larvae were released thereto. […] Test in duplicate.

[1] = test system: Nilaparvata lugens resistant population II; test: Reference Test Example 19 Pest control test of Nilaparvata lugens, resistant population II (soil drench); assay type: in vivo; conditions: for Insecticidal effects against Nilaparvata lugens (death rate %), Resistant population II: soil drench, six days
Procedure: (§2) Three days after the treatment, ten second instar larvae of Nilaparvata lugens, which had been collected outdoors and proliferated indoors, were each released to the rice seedling. […] Test in duplicate.
(§3) Furthermore, for comparison, the test against a species of Nilaparvata lugens which is highly susceptible to imidacloprid was performed by the same method as described above, and the results thereof are shown in Table 45. […] Meanwhile, the death rates of imidacloprid at 0.05 mg/seedling were (susceptible species) 100%, (resistant population I) 38% and (resistant population II) 69%, and the insecticidal effect thereof was also low even at a high dose. From the above results, it became obvious that Compound P212 and Compound 1-20 have high insecticidal effects even against Nilaparvata lugens resistance against imidacloprid.
(§4) Further, for the origin of test pests, bugs collected outdoors from the Kumamoto prefecture (I) in 2007 and from the Fukuoka prefecture (II) in 2005 as resistant population of Nilaparvata lugens, and bugs collected from the Kagoshima prefecture and then successively reared indoors for a long time as the imidacloprid susceptible population of Nilaparvata lugens were used.

[2] = test system: Trigonotylus caelestialium; test: Reference Test Example 10 Pest control test of Trigonotylus caelestialium (dipping treatment); assay type: in vivo; conditions: 72 h
Procedure: After an air drying process, the wheat seedling leaves and stems were placed into a glass tube, and two second instar larvae of Trigonotylus coelestialium were released to the same glass tube. After the larvae were released, the tube was lidded to leave the larvae to stand in a thermostatic chamber at 25° C. In order to supply water to the wheat during the test, water was given to the wheat from the bottom of the glass tube. […] Test in triplicate.

Sogatella furcifera = test: Reference Test Example 6 Pest control test of Sogatella furcifera (foliar treatment, single agent); assay type: in vivo; conditions: 96 h
Source text: as §1

Nilaparvata lugens = test: Reference Test Example 5 Pest control test of Nilaparvata lugens (foliar treatment, single agent); assay type: in vivo; conditions: 144 h
Source text: as §1

Laodelphax striatella [3] = test: whole plant or invertebrate; assay type: in vivo
Procedure: After an air drying process, second instar larvae were released thereto. […] The test was performed in duplicate.
(§5) Method for Judging Synergistic Effects

Aphis gossypii [4] = test: whole plant or invertebrate; assay type: in vivo; conditions: Aphis gossypii
Procedure: The test was performed in duplicate.
as §5

Laodelphax striatella [5] = test: Reference Test Example 4 Pest control test of Laodelphax striatella (foliar treatment, single agent); assay type: in vivo; conditions: Laodelphax striatellus, 72 h
Source text: as §1

Laodelphax striatella [6] = test: whole plant or invertebrate; conditions: Laodelphax striatellus, soil, 72 h, soil irrigation
Procedure: After the rice seedling was left to stand for 3 days, second instar larvae were released thereto. Thereafter, the larvae were left to stand in a thermostatic chamber (16 hours of light period-8 hours of dark period) at 25° C. […] The test was performed in duplicate. Mortality of larvae (%)={number of dead larvae/(number of survived larvae+number of dead larvae)}×100
B: 100−(mortality of larvae or adults when treated only with each of imidacloprid, fipronil, chlorantraniliprole, spinosad, clothianidin, dinotefuran, sulfoxaflor, pymetrozine, thiamethoxam, flupyradifurone and cycloxaprid))
as §5
When the mortality against Laodelphax striatella in the case of a mixture with another agent exceeded the theoretical value by the Colby's equation, a synergistic effect was judged to be present.

[7] = test system: Frankliniella occidentalis; test: Reference Test Example 9 Pest control test of Frankliniella occidentalis (foliar treatment, single agent); assay type: in vivo; conditions: 72 h
Procedure: After an air drying process, first instar larvae were released to the leaf disk. Thereafter, the larvae were left to stand in a thermostatic chamber (16 hours of light period-8 hours of dark period) at 25° C. […] Test in duplicate. Mortality of larvae (%)={number of dead larvae/(number of survived larvae+number of dead larvae)}×100

Aphis gossypii [8] = test: Reference Test Example 3 Pest control test of Aphis gossypii (foliar treatment, single agent); assay type: in vivo
Procedure: After an air drying process, first instar larvae were released thereto. Thereafter, the larvae were left to stand in a thermostatic chamber (16 hours of light period-8 hours of dark period) at 25° C. […] Test in duplicate. Mortality (%)={number of dead larvae/(number of survived larvae+number of dead larvae)}×100

Laodelphax striatella [9] = test: Reference Test Example 18 Pest control test of Laodelphax striatella (wheat seedling root treatment); assay type: in vivo; conditions: wheat seedling roots treated; four days after release; 20 μg/seedling
Procedure: The drug was absorbed from the roots for 72 hours, and then ten second instar larvae of Laodelphax striatella were each released thereto. […] The test was performed in duplicate.

[10] = test system: Nilaparvata lugens resistant population I; test: Reference Test Example 19 Pest control test of Nilaparvata lugens, resistant population I (soil drench); assay type: in vivo; conditions: for Insecticidal effects against Nilaparvata lugens (death rate %), Resistant population I: soil drench, six days
Procedure: as §2, §3, §4

[11] = test system: Nilaparvata lugens susceptible species (highly susceptible to imidacloprid); test: Reference Test Example 19 Pest control test of Nilaparvata lugens, imidacloprid susceptible species (soil drench); assay type: in vivo; conditions: for Insecticidal effects against Nilaparvata lugens (death rate %), Susceptible population: soil drench, six days
Procedure: as §2, §3, §4

[12] = assay type: in vivo; conditions: single agent 0.125 mg/seedling; soil irrigation; seven days after inoculation

## FC(F)(F)C(=S)/N=c1\ccccn1Cc1ccc(Cl)nc1 [Compound 1-20, N-[1-((6-chloropyridin-3-yl)methyl)pyridin-2(1H)-ylidene]-2,2,2-trifluoroethanethioamide]
Spodoptera litura
  mortality at 500 ppm: ≥ 80%
Plutella xylostella; Plutella xylostella, foliar, 72 h
  mortality at 100 ppm: ≥ 80%
Plutella xylostella; foliar treatment, single agent
  Plutella xylostella (Reference Test Example 1), mortality of larvae: 100%
[1]; resistant population II, 0.005 mg/seedling, six days after the release
  death rates of larvae: 85%
[1]; throughput 0.005 mg/seedling
  Insecticidal effects against Nilaparvata lugens (death rate %), Resistant population II: 85%
[1]; throughput 0.01 mg/seedling
  Insecticidal effects against Nilaparvata lugens (death rate %), Resistant population II: 100%
[2]
  mortality at 50 ppm: ≥ 80%
Sogatella furcifera
  mortality at 100 ppm: ≥ 80%
Nilaparvata lugens
  mortality at 100 ppm: ≥ 80%
Laodelphax striatella [3]; Laodelphax striatella foliar, single agent 0.625 ppm (other component 0)
  Theoretical value by Colby's equation: 90%
Laodelphax striatella [3]; Laodelphax striatellus, foliar, 72 h, read-out: Mortality of single agent against Laodelphax striatella
  mortality at 0.625 ppm: 90%
Aphis gossypii [4]; foliar, 72 h, read-out: Mortality of single agent against Aphis gossypii
  mortality at 0.625 ppm: 19%
Aphis gossypii [4]; single agent 0.625 ppm (other component 0)
  Theoretical value by Colby's equation: 19%
Laodelphax striatella [5]
  mortality at 100 ppm: ≥ 80%
Laodelphax striatella [6]; read-out: Mortality of single agent against Laodelphax striatella, single agent 0.005 mg/Seedling
  mortality at 0.005 mg/seedling: 12%
[7]
  mortality at 500 ppm: ≥ 80%
Aphis gossypii [8]; Aphis gossypii, foliar, 72 h
  mortality at 100 ppm: ≥ 80%
Aphis gossypii [8]; foliar treatment, single agent
  Aphis gossypii (Reference Test Example 3), mortality of larvae: 100%
Laodelphax striatella [9]
  Laodelphax striatella (Reference Test Example 18), mortality of larvae: 100%
[10]; resistant population I, 0.005 mg/seedling, six days after the release
  death rates of larvae: 77%
[10]; throughput 0.005 mg/seedling
  Insecticidal effects against Nilaparvata lugens (death rate %), Resistant population I: 77%
[10]; throughput 0.01 mg/seedling
  Insecticidal effects against Nilaparvata lugens (death rate %), Resistant population I: 100%
[11]; susceptible species, 0.005 mg/seedling, six days after the release
  death rates of larvae: 100%
[11]; throughput 0.005 mg/seedling
  Insecticidal effects against Nilaparvata lugens (death rate %), Susceptible population: 100%
[11]; throughput 0.01 mg/seedling
  Insecticidal effects against Nilaparvata lugens (death rate %), Susceptible population: 95%

## C=CCOC1=NS(=O)(=O)c2ccccc21 [Probenazole]
[12]
  Preventive value (rice blast, number of lesions): 96.7
Laodelphax striatella [6]; read-out: Mortality of single agent against Laodelphax striatella, single agent 0.5 mg/Seedling
  mortality at 0.5 mg/seedling: 9%
